Reference: patent US20050175555A1, “Polyunsaturated linear aldehydes and their derivatives with anti-radical and anti-tumoral activity” (priority 2002, published 2005)

Tested on: UV-induced erythema
Assay: UV-induced erythema prevention test
Type: in vivo
Conditions: guinea pig ear, UV lamp 30 sec, 10% suspension topical, approx. 3 hours
Protocol: UV-induced erythema was caused by applying a UV lamp (Hanoivna Kramager) to the ear of a guinea pig for 30 sec; the lamp transmitted rays with a wavelength of […], which consequently included UV-B, UV-C and UV-A rays, through a special filter.
Excipients only or a suspension containing 5 or 10% 2,4,6,8,10,12,14-hexadecaheptaenol palmitate were spread on the ear of the test animals, and the temperature increase resulting from the UV-induced erythema was measured with a thermoelectric thermometer after approx. 3 hours in the control animals and the test animals.

In the case of `CC=CC=CC=CC=CC=CC=CC=CCOC(=O)CCCCCCCCCCCCCCC` [2,4,6,8,10,12,14-hexadecaheptaenyl palmitate], the “appearance of heat and erythema” value is reported as “inhibited”.
